# From US7652013B2, “Inhibitors of stearoyl-CoA desaturase” (Hoffman-La Roche Inc., priority 2007, dated 2010)
# Target: T1, SCD1 (Mus musculus, UniProt P13516)
# T1 construct: Mouse liver microsomes, prepared from mice fed a high carbohydrate diet, were a source of the SCD; from tissue; host or cells: mouse liver microsomes (mice fed a high carbohydrate diet)
# T1 sequence (P13516 1-355): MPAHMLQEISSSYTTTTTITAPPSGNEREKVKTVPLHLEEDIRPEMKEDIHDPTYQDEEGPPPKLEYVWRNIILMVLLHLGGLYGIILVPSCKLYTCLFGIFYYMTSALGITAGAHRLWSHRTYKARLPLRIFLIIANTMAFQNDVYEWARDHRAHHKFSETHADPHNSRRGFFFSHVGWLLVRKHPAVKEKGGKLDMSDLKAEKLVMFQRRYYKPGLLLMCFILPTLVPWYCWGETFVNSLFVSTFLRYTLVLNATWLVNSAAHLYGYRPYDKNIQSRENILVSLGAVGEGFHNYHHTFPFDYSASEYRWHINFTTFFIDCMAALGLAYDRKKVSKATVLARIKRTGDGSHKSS
# Assay: SCD assay: release of tritiated water from desaturation of 9,10-3H-stearoyl CoA, mouse liver microsomes
# Type: biochemical
# From the text: Stearoyl CoA desaturase activity was monitored by a modification of the acyl carrier protein assay described by B. R. Talamo and K. Bloch in Anal. Biochem. 1968, 29, 300-304. The SCD assay monitors the release of tritiated water from the desaturation of 9,10-^3H-stearoyl CoA.
# Mouse liver microsomes, prepared from mice fed a high carbohydrate diet, were a source of the SCD and cyt b5 and cyt b5 reductase, necessary accessory proteins for the coupled reaction. Reaction mixtures for compound titrations contained 50 mM Tris HCl pH 7.5, 100 mM NaCl, 0.165 mg/ml BSA, 2.4% DMSO, 1 mM NADH, 0.03% T-20, and 300 nM (9,10) ^3H-stearoyl CoA (Perkin-Elmer). Reactions were initiated upon the addition of 4 ug/ml SCD microsomes. Incubations were terminated after 25 minutes at room temperature with cold 6% TCA. After standing 10 minutes at 4 deg C., samples were centrifuged 15 minutes at 4000 rpm to pellet precipitated protein. Supernatants were added to microtiter plates containing suspensions of activated charcoal (Darco G-60, Fisher Scientific) and mixed by inversion. Plates were then centrifuged to separate ^3H—H2O product from charcoal-bound reactants. Supernatants were quantitated in a Perkin Elmer Topcount 384 after solubilization in ScintiSafe Plus 50% (Fisher Scientific).
# Inhibition (%) of SCD activity by compounds was calculated according to the following formula: % Inhibition=100*[1−(CPMsample−CPMblank)/(CPMtotal−CPMblank)]
row,SMILES,IC50 [µM]
1,"O=c1cc(N2CCN(Cc3ccc(F)cc3Cl)CC2)nc[nH]1 [Example 32, 6-[4-(2-Chloro-4-fluoro-benzyl)-piperazin-1-yl]-3H -pyrimidin-4-one]",≥ 1.1
2,"O=c1cc(N2CCN(Cc3ccc(F)c(F)c3)CC2)nc[nH]1 [Example 21, 6-[4-(3,4-Difluoro-benzyl)-piperazin-1-yl]-3H-pyrimidin-4-one]",≤ 1
3,"O=c1cc(N2CCN(Cc3cccc(Br)c3O)CC2)nc[nH]1 [Example 48, 6-[4-(3-Bromo-2-hydroxy-benzyl)-piperazin-1-yl]-3H -pyrimidin-4-one]",≤ 1
4,"O=c1cc(N2CCN(Cc3cc(F)cc(F)c3O)CC2)nc[nH]1 [Example 44, 6-[4-(3,5-Difluoro-2-hydroxy-benzyl)-piperazin-1-yl]-3H-pyrimidin-4-one]",≤ 1
5,"O=c1cc(N2CCN(Cc3ccc(F)c(Cl)c3)CC2)nc[nH]1 [Example 22, 6-[4-(3-Chloro-4-fluoro-benzyl)-piperazin-1-yl]-3H -pyrimidin-4-one]",≤ 1
6,"O=c1cc(N2CCN(Cc3cc(Br)cc(Br)c3O)CC2)nc[nH]1 [Example 49, 6-[4-(3,5-Dibromo-2-hydroxy-benzyl)-piperazin-1-yl]-3H-pyrimidin-4-one]",≤ 1
7,"Cc1cccc(CN2CCN(c3cc(=O)[nH]cn3)CC2)c1O [Example 38, 6-[4-(2-Hydroxy-3-methyl-benzyl)-piperazin-1-yl]-3H -pyrimidin-4-one]",≤ 1
8,"Cc1ccc(CN2CCN(c3cc(=O)[nH]cn3)CC2)c(C)c1 [Example 4, 6-[4-(2,4-Dimethyl-benzyl)-piperazin-1-yl]-3H-pyrimidin-4-one]",≥ 1.1
9,"O=c1cc(N2CCN(Cc3ccccc3Br)CC2)nc[nH]1 [Example 18, 6-[4-(2-Bromo-benzyl)-piperazin-1-yl]-3H-pyrimidin-4-one]",≤ 1
10,"O=c1cc(N2CCN(Cc3cccc(Cl)c3O)CC2)nc[nH]1 [Example 45, 6-[4-(3-Chloro-2-hydroxy-benzyl)-piperazin-1-yl]-3H -pyrimidin-4-one]",≤ 1
11,"Cc1ccc(O)c(CN2CCN(c3cc(=O)[nH]cn3)CC2)c1 [Example 39, 6-[4-(2-Hydroxy-5-methyl-benzyl)-piperazin-1-yl]-3H -pyrimidin-4-one]",≤ 1

# The remaining lines, values ahead:
row,IC50 [µM],SMILES
1,≥ 1.1,"O=c1cc(N2CCN(Cc3cc(Br)ccc3F)CC2)nc[nH]1 [Example 19, 6-[4-(5-Bromo-2-fluoro-benzyl)-piperazin-1-yl]-3H -pyrimidin-4-one]"
2,≥ 1.1,"O=c1cc(N2CCN(Cc3cccc(F)c3)CC2)nc[nH]1 [Example 33, 6-[4-(3-Fluoro-benzyl)-piperazin-1-yl]-3H-pyrimidin-4-one]"
3,≤ 1,"COc1cc(Cl)cc(CN2CCN(c3cc(=O)[nH]cn3)CC2)c1O [Example 53, 6-[4-(5-Chloro-2-hydroxy-3-methoxy-benzyl)-piperazin-1-yl]-3H -pyrimidin-4-one]"
4,≤ 1,"CC(C)(C)c1cccc(CN2CCN(c3cc(=O)[nH]cn3)CC2)c1O [Example 41, 6-[4-(3-tert-Butyl-2-hydroxy-benzyl)-piperazin-1-yl]-3H-pyrimidin-4-one]"
5,≥ 1.1,"O=c1cc(N2CCN(Cc3ccc(Br)cc3F)CC2)nc[nH]1 [Example 34, 6-[4-(4-Bromo-2-fluoro-benzyl)-piperazin-1-yl]-3H -pyrimidin-4-one]"
6,≥ 1.1,"C=CCc1cc(CN2CCN(c3cc(=O)[nH]cn3)CC2)c(O)c(OC)c1 [Example 52, 6-[4-(5-Allyl-2-hydroxy-3-methoxy-benzyl)-piperazin-1-yl]-3H -pyrimidin-4-one]"
7,≤ 1,"O=c1cc(N2CCN(Cc3cc(I)ccc3O)CC2)nc[nH]1 [Example 51, 6-[4-(2-Hydroxy-5-iodo-benzyl)-piperazin-1-yl]-3H -pyrimidin-4-one]"
8,≤ 1,"C=CCc1cccc(CN2CCN(c3cc(=O)[nH]cn3)CC2)c1O [Example 40, 6-[4-(3-Allyl-2-hydroxy-benzyl)-piperazin-1-yl]-3H -pyrimidin-4-one]"
9,≤ 1,"O=c1cc(N2CCN(Cc3cc([N+](=O)[O-])ccc3O)CC2)nc[nH]1 [Example 29, 6-[4-(2-Hydroxy-5-nitro-benzyl)-piperazin-1-yl]-3H -pyrimidin-4-one]"

# Test system: not given
# Assay: not given
row,melting point,SMILES
1,255 to 256 °C (dec.),"O=c1cc(N2CCN(Cc3ccc(F)cc3Cl)CC2)nc[nH]1 [Example 32, 6-[4-(2-Chloro-4-fluoro-benzyl)-piperazin-1-yl]-3H -pyrimidin-4-one]"
2,273 to 275 °C (dec.),"O=c1cc(N2CCN(Cc3cccc(F)c3)CC2)nc[nH]1 [Example 33, 6-[4-(3-Fluoro-benzyl)-piperazin-1-yl]-3H-pyrimidin-4-one]"
3,275 to 276 °C,"O=c1cc(N2CCN(Cc3ccc(Br)cc3F)CC2)nc[nH]1 [Example 34, 6-[4-(4-Bromo-2-fluoro-benzyl)-piperazin-1-yl]-3H -pyrimidin-4-one]"
